Data published in US20160318928A1, “TRICYCLIC COMPOUNDS AS ANTICANCER AGENTS” (BRISTOL-MYERS SQUIBB COMPANY, priority 2013, published 2016).

Legend:
[1] = system: H187 Human Small Cell Carcinoma; experiment: Human tumor xenograft model in mice, H187; type: in vivo
Text: (§1) Human Tumor Xenograft Models in Mice
(§2) All rodents were obtained from Jackson Laboratory. (Bar Harbor, Me.), and maintained in an ammonia-free environment in a defined and pathogen-free colony. All mice were quarantined approximately 1 week prior to their use for tumor propagation and drug efficacy testing. Mice were fed food and water ad libitum. The animal care program of Bristol-Myers Squibb Pharmaceutical Research Institute is fully accredited by the American Association for Accreditation of Laboratory Animal Care (AAALAC). All experiments were performed in accordance with Bristol-Myers Squibb (BMS) animal test methods and guidelines.
(§3) Tumor xenografts were grown and maintained subcutaneously (SC) in NSG (NOD scid IL2 receptor gamma chain knockout) mice (Jackson Lab). Tumors were propagated as subcutaneous transplants using tumor fragments obtained from donor mice.
(§4) Preclinical Chemotherapy Trials
(§5) The required numbers of animals needed to detect a meaningful response were pooled at the start of the experiment and each was given bilateral subcutaneous implants of two tumor fragments (˜20 mg) with a 13-gauge trocar. Tumors were allowed to grow to the pre-determined size window (tumors outside the range were excluded) and animals were evenly distributed to various treatment and control groups. There were typically 6-8 mice per treatment and control groups, consisting of 10-12 tumors. Treatment of each animal was based on individual body weight. Treated animals were checked daily for treatment related toxicity/mortality. Each group of animals was weighed before the initiation of treatment (WO and then again following the last treatment dose (Wt2). The difference in body weight (Wt2-Wt1) provides a measure of treatment-related toxicity.
(§6) Tumor response was determined by measurement of tumors with a caliper twice a week, until the tumors reached a predetermined “target” size of 0.5 gm or 1 gm depending on the tumor type. Tumor weights (mg) were estimated from the formula:
(§7) Tumor weight=(length×width^2)÷2
(§8) Tumor response criteria are expressed in terms of tumor growth inhibition (% TGI). Tumor growth delay is defined as the difference in time (days) required for the treated tumors (T) to reach a predetermined target size compared to those of the control group (C). For this purpose, the tumor weight of a group is expressed as medium tumor weight (MTW).
(§9) Tumor growth inhibition is calculated as follows:
(§10) where, Ct=Median control tumor size at end of treatment C0=Median control tumor size at treatment initiation Tt=Median tumor size of treated group at end of treatment T0=Median tumor size of treated group at treatment initiation
(§11) Tumor response was also expressed in terms of tumor growth delay and expressed as log cell kill (LCK value), defined as the difference in time (days) required for the treated tumors (T) to reach a predetermined target size compared to those of the control group (C).
(§12) Whenever possible, antitumor activity was determined at a range of dose levels up to the maximum tolerated dose (MTD) which is defined as the dose level immediately […] which excessive toxicity (i.e. more than one death) occurred. When death occurred, the day of death was recorded. Treated mice dying prior to having their tumors reach target size were considered to have died from drug toxicity. No control mice died bearing tumors less than target size. Treatment groups with more than one death caused by drug toxicity were considered to have had excessively toxic treatments and their data were not included in the evaluation of a compound's antitumor efficacy.
(§13) For administration of BET inhibitors to rodents, compounds were dissolved in […]/10% TPGS/10% Ethanol. BET inhibitors were typically administered orally on a schedule of QDx7 or QDx10 (5 day-on-2 day-off), although other schedules had also been evaluated and shown to be efficacious

BRD4 = BRD4 (Homo sapiens, UniProt O60885); experiment: Time resolved fluorescence resonance energy transfer (TR-FRET) binding assay, BRD4 bromodomain; conditions: one of the FRET assays described
[2] = system: JJN3R multiple myeloma cell line; experiment: Human tumor xenograft model in mice, JJN3R; type: in vivo; conditions: Mus musculus, JJN-3R, po, QDx7, read-out: % TGI
Text: as §1, §2, §3, §4, §5, §6, §7, §8, §9, §10, §11, §12, §13

Question: How did the “% TGI” value ([1]; 5 mg/kg, 2QDx7) turn out when `Cc1noc(C)c1-c1cnc2c3ccc(C(C)(C)O)cc3n(C(c3ccccc3)C3CCOCC3)c2c1` (single isomer, unassigned) [Example 1, 2-[3-(Dimethyl-1,2-oxazol-4-yl)-5-[oxan-4-yl(phenyl)methyl]-5H-pyrido[3,2-b]indol-7-yl]propan-2-ol] was run?
Answer: Its value is 88.0%.

Question: What about the LCK ([1]; 5 mg/kg, 2QDx7) of the same molecule?
Answer: Its LCK is 1.0.

Question: And the “% TGI” value ([1]; 15 mg/kg, 2QDx7)?
Answer: The value was 104.0%.

Question: What about the LCK ([1]; 15 mg/kg, 2QDx7) of the same molecule?
Answer: Its LCK is 1.2.

Question: Which results are given for `Cc1nnn(C)c1-c1cnc2c3ccc(C(C)(C)O)cc3n([C@H](c3ccccc3)C3CCOCC3)c2c1` (single isomer, unassigned) [Example 54]?
Answer: % TGI ([1]; 5 mg/kg, QDx7): 100.0%; LCK ([1]; 5 mg/kg, QDx7): 0.7; % TGI ([1]; 10 mg/kg, QDx7): 102.0%; LCK ([1]; 10 mg/kg, QDx7): 0.9

Question: For `[2H]C([2H])([2H])c1nnn(C)c1-c1cnc2c3ccc(C(C)(C)O)cc3n(C(c3ccc(F)cc3)C3CCOCC3)c2c1` (stereo not drawn) [Example 267], which IC50 (BRD4) is on record?
Answer: The IC50 was under 5 nM.

Question: And the inhibition in vivo at 1 mg/kg [2]?
Answer: Its inhibition in vivo at 1 mg/kg is 10%.

Question: And the inhibition in vivo at 4 mg/kg [2]?
Answer: The inhibition in vivo at 4 mg/kg was 67%.

Question: How did the inhibition in vivo at 1 mg/kg [2] turn out when `[2H]C([2H])([2H])c1nnn(C)c1-c1cnc2c3cc(F)c(C(C)(C)O)cc3n([C@H](c3ccccc3)C3CCOCC3)c2c1` [Example 279, 2-{8-Fluoro-3-[4-(^2H3)methyl-1-methyl-1H-1,2,3-triazol-5-yl]-5-[(S)-oxan-4-yl(phenyl)methyl]-5H-pyrido[3,2-b]indol-7-yl}propan-2-ol] was run?
Answer: The inhibition in vivo at 1 mg/kg was 88%.

Question: And the inhibition in vivo at 4 mg/kg [2]?
Answer: The inhibition in vivo at 4 mg/kg was 110%.

Question: For `[2H]C([2H])([2H])c1nnn(C)c1-c1cnc2c3ccc([C@@](C)(O)C4CC4)c(F)c3n([C@H](c3ccccc3)C3CCOCC3)c2c1` [Example 433, (1 S)-1-cyclopropyl-1-{6-fluoro-3-[4-(^2H3)methyl-1-methyl-1H-1,2,3-triazol-5-yl]-5-[(S)-oxan-4-yl(phenyl)methyl]-5H-pyrido[3,2-b]indol-7-yl}ethan-1-ol], which inhibition in vivo at 1 mg/kg [2] is on record?
Answer: Its inhibition in vivo at 1 mg/kg is 54%.

Question: With `[2H]C([2H])([2H])c1nnn(C)c1-c1cnc2c3ccc([C@](C)(O)C4CC4)c(F)c3n([C@H](c3ccccc3)C3CCOCC3)c2c1` [Example 434, (1R)-1-cyclopropyl-1-{6-fluoro-3-[4-(^2H3)methyl-1-methyl-1H-1,2,3-triazol-5-yl]-5-[(5)-oxan-4-yl(phenyl)methyl]-5H-pyrido[3,2-b]indol-7-yl}ethan-1-ol] as the molecule, how does the inhibition in vivo at 1 mg/kg [2] read?
Answer: The inhibition in vivo at 1 mg/kg was 82%.
